Reference: patent US20230265094A1, “RIPK1 INHIBITORS AND METHODS OF USE” (Merck Sharp & Dohme LLC, priority 2020, published 2023)
Structures can show the parent of a compound that is named as a salt.

target: T1, RIPK1 (Homo sapiens, UniProt Q13546); experiment: RIPK1-ADP-Glo enzymatic assay; format: biochemical; settings: ADP-Glo luminescent ADP detection; 25 nM GST-RIPK1 kinase domain (residues 1-327), 300 μM ATP, dephosphorylated-MBP substrate; 30 min pre-incubation, 150 min reaction
T1 construct: recombinant GST-RIPK1 kinase domain (residues 1-327) enzyme produced from baculovirus-transfected Sf21 cells; host or cells: baculovirus-transfected Sf21 insect cells
T1 sequence (Q13546 1-327): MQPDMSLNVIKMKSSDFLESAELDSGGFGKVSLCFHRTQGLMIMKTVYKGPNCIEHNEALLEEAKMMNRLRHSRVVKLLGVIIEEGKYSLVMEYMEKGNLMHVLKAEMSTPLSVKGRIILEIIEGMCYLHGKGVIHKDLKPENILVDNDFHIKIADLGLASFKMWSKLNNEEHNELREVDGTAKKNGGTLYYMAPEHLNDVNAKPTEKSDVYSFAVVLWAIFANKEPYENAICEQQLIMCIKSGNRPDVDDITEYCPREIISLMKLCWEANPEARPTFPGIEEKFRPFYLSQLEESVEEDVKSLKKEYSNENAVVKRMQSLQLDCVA
Description: RIPK1-ADP-Glo Enzymatic Assay
The enzymatic activity of RIPK1 is measured using an assay derived from ADP-Glo kit (Promega™), which provides a luminescent-based ADP detection system. Specifically, the ADP generated by RIPK1 kinase is proportionally detected as luminescent signals in a homogenous fashion. In this context, the assessment of the inhibitory effect of small molecules (EC50) is measured by the effectiveness of the compounds to inhibit the ATP to ADP conversion by RIPK1.
In this assay, the potency (EC50) of each compound was determined from a ten-point (1:3 serial dilution; top compound concentration of 100000 nM) titration curve using the following outlined procedure. To each well of a white ProxiPlus 384 well-plate, 30 nL of compound (1% DMSO in final assay volume of 3 μL) was dispensed, followed by the addition of 2 μL of 1×assay buffer (25 mM Hepes 7.3, 20 mM MgCl2, 50 mM NaCl, 1 mM DTT, 0.005% Tween20, and 0.02% BSA) containing 37.5 nM of GST-RIPK1 (recombinant GST-RIPK1 kinase domain (residues 1-327) enzyme produced from baculovirus-transfected Sf21 cells: MW=62 kDa). Plates were placed in an ambient temperature humidified chamber for a 30 minutes pre-incubation with compound. Subsequently, each reaction was initiated by the addition of 1 μL 1×assay buffer containing 900 μM ATP and […] dephosphorylated-MBP substrate. The final reaction in each well of 3 μL consists of 25 nM of GST-RIPK1, 300 μM ATP, and 3 μM dephosphorylated-MBP. Kinase reactions were allowed to proceed for 150 minutes prior to adding ADP-Glo reagents per Promega's outlined kit protocol. Dose-response curves were generated by plotting percent effect (% product conversion; Y-axis) vs. Log10 compound concentrations (X-axis). EC50 values were calculated using a non-linear regression, four-parameters sigmoidal dose-response model.

| SMILES | EC50 [nM] |
| --- | --- |
| O=C(N1CC(Oc2ccccc2)C1)N1N=CC[C@H]1C12CCC(CC1)C2 [Example 2.16, ((5S)-5-(bicyclo[2.2.1]heptan-1-yl)-4,5-dihydro-1H-pyrazol-1-yl)(3-phenoxyazetidin-1-yl)methanone] | 92.7 |
| C[C@H]1[C@@H](Oc2ccc(F)cc2)CN1C(=O)N1N=CC[C@H]1c1cc(F)cc(F)c1 [Example 2.27, ((S)-5-(3,5-difluorophenyl)-4,5-dihydro-1H-pyrazol-1-yl)((2S,3S)-3-(4-fluorophenoxy)-2-methylazetidin-1-yl)methanone] | 6.8 |
| CC(C)C1(O)CN(C(=O)N2N=CC[C@H]2c2ccc(Cl)cc2)C1 [Example 2.7, (S)-(5-(4-chlorophenyl)-4,5-dihydro-1H-pyrazol-1-yl)(3-hydroxy-3-isopropylazetidin-1-yl)methanone] | 5160 |
| COC1CN(C(=O)N2N=CC[C@H]2c2cc(F)cc(F)c2)C1 [Example 2.1, (S)-(5-(3,5-difluorophenyl)-4,5-dihydro-1H-pyrazol-1-yl)(3-methoxyazetidin-1-yl)methanone] | 11 |
| O=C(N1CC(c2ccccc2)C1)N1N=CC[C@H]1c1cc(F)cc(F)c1 [Example 1.41, (S)-(5-(3,5-difluorophenyl)-4,5-dihydro-1H-pyrazol-1-yl)(3-phenylazetidin-1-yl)methanone] | 6.6 |
| O=C(N1CC(Oc2ccccc2)C1)N1N=CC[C@H]1c1ccc(Cl)cc1 [Example 2.6, (S)-(5-(4-chlorophenyl)-4,5-dihydro-1H-pyrazol-1-yl)(3-phenoxyazetidin-1-yl)methanone] | 9.6 |
| O=C(N1CC(OC2CCCCC2)C1)N1N=CC[C@H]1c1cc(F)cc(F)c1 [Example 1.59, (S)-(3-(cyclohexyloxy)azetidin-1-yl)(5-(3,5-difluorophenyl)-4,5-dihydro-1H-pyrazol-1-yl)methanone] | 245 |
| O=C(N1CCC1c1ccccc1F)N1N=CC[C@H]1c1cc(F)cc(F)c1 (mixture of isomers) [Example 1.21, ((S)-5-(3,5-difluorophenyl)-4,5-dihydro-1H-pyrazol-1-yl)((R and S)-2-(2-fluorophenyl)azetidin-1-yl)methanone] | 27.6 |
| N#CC1(c2ccccc2)CN(C(=O)N2N=CC[C@H]2c2cc(F)cc(F)c2)C1 [Example 1.39, (S)-1-(5-(3,5-difluorophenyl)-4,5-dihydro-1H-pyrazole-1-carbonyl)-3-phenylazetidine-3-carbonitrile] | 648 |
| CCOc1cccc(CC2CN(C(=O)N3N=CC[C@H]3c3cc(F)cc(F)c3)C2)c1 [Example 1.48, (S)-(5-(3,5-difluorophenyl)-4,5-dihydro-1H-pyrazol-1-yl)(3-(3-ethoxybenzyl)azetidin-1-yl)methanone] | 17.1 |
| CSc1nc(C)cc(OC2CN(C(=O)N3N=CC[C@H]3c3cc(F)cc(F)c3)C2)n1 [Example 3.4, (S)-(5-(3,5-difluorophenyl)-4,5-dihydro-1H-pyrazol-1-yl)(3-((6-methyl-2-(methylthio)pyrimidin-4-yl)oxy)azetidin-1-yl)methanone, TFA salt] | 38.1 |
| O=C(N1CC(O)(C(F)(F)F)C1)N1N=CC[C@H]1c1ccc(Cl)cc1 [Example 2.11, (S)-(5-(4-chlorophenyl)-4,5-dihydro-1H-pyrazol-1-yl)(3-hydroxy-3-(trifluoromethyl)azetidin-1-yl)methanone] | 578 |
| CC1(Oc2ccccc2)CN(C(=O)N2N=CC[C@H]2c2cc(F)cc(F)c2)C1 [Example 1.1, (S)-(5-(3,5-difluorophenyl)-4,5-dihydro-1H-pyrazol-1-yl)(3-methyl-3-phenoxyazetidin-1-yl)methanone, TFA salt] | 2.5 |
| O=C(N1CC(Oc2ccccc2)C1)N1N=CC[C@@H]1c1ccccc1 (single isomer, unassigned) [Example 2.4] | 5000 |
| C[C@@H]1[C@H](Oc2ccccc2)CN1C(=O)N1N=CC[C@H]1c1cc(F)cc(F)c1 (racemic) [Example 1.11, ((S)-5-(3,5-difluorophenyl)-4,5-dihydro-1H-pyrazol-1-yl)((2R,3R and 2S,3S)-2-methyl-3-phenoxyazetidin-1-yl)methanone, TFA salt] | 11.8 |
| O=C(N1CCC1)N1N=CC[C@H]1c1cc(F)cc(F)c1 [Example 1.60, (S)-azetidin-1-yl(5-(3,5-difluorophenyl)-4,5-dihydro-1H-pyrazol-1-yl)methanone] | 64.5 |
| CCC1(Oc2ccccc2)CN(C(=O)N2N=CC[C@H]2c2cc(F)cc(F)c2)C1 [Example 2.45, (S)-(5-(3,5-difluorophenyl)-4,5-dihydro-1H-pyrazol-1-yl)(3-ethyl-3-phenoxyazetidin-1-yl)methanone] | 57.4 |
| C[C@@H]1[C@@H](Oc2ccccc2)CN1C(=O)N1N=CC[C@H]1c1cc(F)cc(F)c1 (single isomer, unassigned) [Example 1.10, ((S)-5-(3,5-difluorophenyl)-4,5-dihydro-1H-pyrazol-1-yl)((2R,3S or 2S,3R)-2-methyl-3-phenoxyazetidin-1-yl)methanone, TFA salt] | 10.5 |
| COC1(C)CN(C(=O)N2N=CC[C@H]2c2cc(F)cc(F)c2)C1 [Example 1.45, (S)-(5-(3,5-difluorophenyl)-4,5-dihydro-1H-pyrazol-1-yl)(3-methoxy-3-methylazetidin-1-yl)methanone] | 98.5 |
| O=C(N1CC(Nc2ccccc2)C1)N1N=CC[C@H]1c1ccc(Cl)cc1 [Example 2.9, (S)-(5-(4-chlorophenyl)-4,5-dihydro-1H-pyrazol-1-yl)(3-(phenylamino)azetidin-1-yl)methanone] | 22.7 |
| O=C(N1CC2(CCCOC2)C1)N1N=CC[C@H]1c1cc(F)cc(F)c1 [Example 1.53, (S)-(5-(3,5-difluorophenyl)-4,5-dihydro-1H-pyrazol-1-yl)(6-oxa-2-azaspiro[3.5]nonan-2-yl)methanone] | 530 |
| Cc1ncc([C@@H]2CC=NN2C(=O)N2C[C@H](Oc3ccc(F)cc3)[C@H]2C)cc1F [Example 2.23, ((S)-5-(5-fluoro-6-methylpyridin-3-yl)-4,5-dihydro-1H-pyrazol-1-yl)((2R,3S)-3-(4-fluorophenoxy)-2-methylazetidin-1-yl)methanone] | 10.1 |
| C[C@H]1[C@@H](Oc2ccc(F)cc2)CN1C(=O)N1N=CC[C@H]1c1cncc(F)c1 [Example 2.18, ((2S,3S)-3-(4-fluorophenoxy)-2-methylazetidin-1-yl)((S)-5-(5-fluoropyridin-3-yl)-4,5-dihydro-1H-pyrazol-1-yl)methanone] | 10 |
| O=C(N1CC(Oc2ccccc2)C1)N1N=CC[C@@H]1c1cccnc1 [Example 2.15, (R)-(3-phenoxyazetidin-1-yl)(5-(pyridin-3-yl)-4,5-dihydro-1H-pyrazol-1-yl)methanone] | 95.6 |
| COCCC1CN(C(=O)N2N=CC[C@H]2c2cc(F)cc(F)c2)C1 [Example 1.38, (S)-(5-(3,5-difluorophenyl)-4,5-dihydro-1H-pyrazol-1-yl)(3-(2-methoxyethyl)azetidin-1-yl)methanone] | 105 |
| N#Cc1cc(OC2CN(C(=O)N3N=CC[C@H]3c3cc(F)cc(F)c3)C2)ncn1 (single isomer, unassigned) [Example 1.6] | 83 |
| N#Cc1cccc(OC2CN(C(=O)N3N=CC[C@H]3c3cc(F)cc(F)c3)C2)c1 [Example 2.44, (S)-3-((1-(5-(3,5-difluorophenyl)-4,5-dihydro-1H-pyrazole-1-carbonyl)azetidin-3-yl)oxy)benzonitrile] | 11.9 |
